Measured values as given in patent publication US6461997B1, “Triazole sulfones having herbicidal activity” (Monsanto Technology LLC, priority 1999, dated 2002).

Tested on: AEGCY (jointed goatgrass)
Test: Post-emergence herbicidal activity, cool season
Assay type: in vivo, Aegilops cylindrica
Conditions: abraded plants sprayed at 300, 100, 30 and 10 g/ha; about 14 days after treatment
Procedure, shortened: (§1)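 Abraded seedling foliage receives a spray of test compound at four rates, 300 to 10 g/ha, in 50:50 acetone/water at 3,100 l/ha. After about 14 days in an 18/13° C. day/night greenhouse, inhibition is scored against abraded untreated controls and expressed as GR80.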

Row | Compound | Post-emergence activity GR80, AEGCY
1 | CCSC(F)(F)S(=O)(=O)c1ncn(C(=O)N(CC)CC)n1 [Example 8, 1-(N,N-diethylcarbamoyl)-3-[difluoro(ethylthio)methylsulfonyl]-1,2,4-triazole] | [empty]

Tested on: SOLNI (black nightshade)
Test: Pre-emergence herbicidal activity, warm season
Assay type: in vivo, Solanum nigrum
Conditions: GR80 = lowest tested rate (300, 100, 30, 10 g/ha) with 80% or greater inhibition; approx. 14 days after treating; 30/21° C.
Procedure, shortened: (§2)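 Seeds sown in sterilised fertilised topsoil received surface-applied compound in 50:50 acetone/water, typically at 300, 100, 30 and 10 g/ha, then greenhouse-grown at 30/21° C (warm-season species) or 18/13° C (cool-season species). Percent inhibition versus untreated plants was scored at about 14 days, giving GR80; an asterisk marks activity short of 80% at the top rate.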

Row | Compound | Pre-emergence activity (GR80) SOLNI [g/ha]
2 | CCSC(F)(F)S(=O)(=O)c1ncn(C(=O)N(CC)CC)n1 [Example 8, 1-(N,N-diethylcarbamoyl)-3-[difluoro(ethylthio)methylsulfonyl]-1,2,4-triazole] | 100

Tested on: ABUTH (velvetleaf)
Test: Pre-plant incorporated (PPI) herbicidal activity, warm season
Assay type: in vivo, Abutilon theophrasti
Conditions: Abutilon theophrasti; PPI application, 30 g/ha; read-out: Percent inhibition ABUTH
Protocol: (§3) In another set of tests, the pre-plant incorporated (PPI) activity of compounds of this invention was evaluated on the same species as for the pre-emergence tests described above. In the PPI tests the following procedure, designed to simulate PPI application, was used.
(§4) A pre-prepared topsoil mixture (described above) was placed in a pot and compacted to a depth of 1.0 to 1.25 cm from the top of the pot. Seeds of each of several monocotyledonous and dicotyledonous annual plant species were placed on top of the soil. A sufficient quantity of soil to cover the seeds and level fill the pot was weighed into an open container. A known amount of the test compound was dissolved or suspended in an organic solvent and applied by spraying to this cover soil. The cover soil was thoroughly mixed to distribute the test compound throughout the cover soil, and was then applied as a cover layer over the seeds. Untreated soil was used as a cover layer for control pots. After treatment the plants were placed in a greenhouse where they received 0.64 cm of overhead irrigation. All subsequent watering consisted of a light overhead mist and/or subirrigation as needed for germination and growth. Tables 9 and 10 below relate to warm season plant species which were placed after pre-emergence treatment in a greenhouse with a 30/21° C. day/night temperature regime. Tables 11 and 12 below relates to cool season plant species placed after pre-emergence treatment in a greenhouse or growth chamber with an 18/13° C. day/night temperature regime. Only the compounds of Examples 1, 6, 8, 11, 13 and 15-20 were included in PPI tests.
(§5) Approximately 14 days after planting and treating, the plants were observed and herbicidal efficacy recorded as percent inhibition by comparison with untreated plants.

Row | Compound | inhibition at 30 g/ha [%]
3 | CCSC(F)(F)S(=O)(=O)c1ncn(C(=O)N(CC)CC)n1 [Example 8, 1-(N,N-diethylcarbamoyl)-3-[difluoro(ethylthio)methylsulfonyl]-1,2,4-triazole] | 0

Same assay, conditions: Abutilon theophrasti; PPI application, 100 g/ha; read-out: Percent inhibition ABUTH

Row | Compound | inhibition at 100 g/ha [%]
4 | CCSC(F)(F)S(=O)(=O)c1ncn(C(=O)N(CC)CC)n1 [Example 8, 1-(N,N-diethylcarbamoyl)-3-[difluoro(ethylthio)methylsulfonyl]-1,2,4-triazole] | 10

Same assay, conditions: Abutilon theophrasti; PPI application, 300 g/ha; read-out: Percent inhibition ABUTH

Row | Compound | inhibition at 300 g/ha [%]
5 | CCSC(F)(F)S(=O)(=O)c1ncn(C(=O)N(CC)CC)n1 [Example 8, 1-(N,N-diethylcarbamoyl)-3-[difluoro(ethylthio)methylsulfonyl]-1,2,4-triazole] | 20

Same assay, conditions: Abutilon theophrasti; PPI application, 900 g/ha; read-out: Percent inhibition ABUTH

Row | Compound | inhibition at 900 g/ha [%]
6 | CCSC(F)(F)S(=O)(=O)c1ncn(C(=O)N(CC)CC)n1 [Example 8, 1-(N,N-diethylcarbamoyl)-3-[difluoro(ethylthio)methylsulfonyl]-1,2,4-triazole] | 100

Same assay, conditions: pre-plant incorporated; GR80 = lowest tested rate with 80% or greater inhibition; approx. 14 days after treating; 30/21° C.

Row | Compound | PPI activity (GR80) ABUTH [g/ha]
7 | CCSC(F)(F)S(=O)(=O)c1ncn(C(=O)N(CC)CC)n1 [Example 8, 1-(N,N-diethylcarbamoyl)-3-[difluoro(ethylthio)methylsulfonyl]-1,2,4-triazole] | 300

Tested on: SINAR (wild mustard)
Test: Pre-plant incorporated (PPI) herbicidal activity, cool season
Assay type: in vivo, Sinapis arvensis
Conditions: Brassica; weed, PPI application, 30 g/ha; read-out: Percent inhibition SINAR
Protocol: as §3, §4, §5

Row | Compound | inhibition at 30 g/ha [%]
8 | CCSC(F)(F)S(=O)(=O)c1ncn(C(=O)N(CC)CC)n1 [Example 8, 1-(N,N-diethylcarbamoyl)-3-[difluoro(ethylthio)methylsulfonyl]-1,2,4-triazole] | 100

Same assay, conditions: Brassica; weed, PPI application, 100 g/ha; read-out: Percent inhibition SINAR

Row | Compound | inhibition at 100 g/ha [%]
9 | CCSC(F)(F)S(=O)(=O)c1ncn(C(=O)N(CC)CC)n1 [Example 8, 1-(N,N-diethylcarbamoyl)-3-[difluoro(ethylthio)methylsulfonyl]-1,2,4-triazole] | 95

Same assay, conditions: Brassica; weed, PPI application, 300 g/ha; read-out: Percent inhibition SINAR

Row | Compound | inhibition at 300 g/ha [%]
10 | CCSC(F)(F)S(=O)(=O)c1ncn(C(=O)N(CC)CC)n1 [Example 8, 1-(N,N-diethylcarbamoyl)-3-[difluoro(ethylthio)methylsulfonyl]-1,2,4-triazole] | 100

Same assay, conditions: Brassica; weed, PPI application, 900 g/ha; read-out: Percent inhibition SINAR

Row | Compound | inhibition at 900 g/ha [%]
11 | CCSC(F)(F)S(=O)(=O)c1ncn(C(=O)N(CC)CC)n1 [Example 8, 1-(N,N-diethylcarbamoyl)-3-[difluoro(ethylthio)methylsulfonyl]-1,2,4-triazole] | 80

Same assay, conditions: pre-plant incorporated; lowest tested rate with 80% or greater inhibition; about 14 days

Row | Compound | PPI activity GR80, SINAR [g/ha]
12 | CCSC(F)(F)S(=O)(=O)c1ncn(C(=O)N(CC)CC)n1 [Example 8, 1-(N,N-diethylcarbamoyl)-3-[difluoro(ethylthio)methylsulfonyl]-1,2,4-triazole] | 100

Tested on: SETFA (giant foxtail)
Test: Pre-emergence herbicidal activity, warm season
Assay type: in vivo, Setaria faberi
Conditions: GR80 = lowest tested rate (300, 100, 30, 10 g/ha) with 80% or greater inhibition; approx. 14 days after treating; 30/21° C.
Procedure, shortened: as §2

Row | Compound | Pre-emergence activity (GR80) SETFA [g/ha]
13 | CCSC(F)(F)S(=O)(=O)c1ncn(C(=O)N(CC)CC)n1 [Example 8, 1-(N,N-diethylcarbamoyl)-3-[difluoro(ethylthio)methylsulfonyl]-1,2,4-triazole] | 100

Tested on: AGSST (creeping bentgrass)
Test: Post-emergence herbicidal activity, cool season
Assay type: in vivo, Agrostis stolonifera
Conditions: abraded plants sprayed at 300, 100, 30 and 10 g/ha; about 14 days after treatment
Procedure, shortened: as §1

Row | Compound | Post-emergence activity GR80, AGSST
14 | CCSC(F)(F)S(=O)(=O)c1ncn(C(=O)N(CC)CC)n1 [Example 8, 1-(N,N-diethylcarbamoyl)-3-[difluoro(ethylthio)methylsulfonyl]-1,2,4-triazole] | [empty]

Tested on: CIRAR (canada thistle (seedling))
Test: Pre-emergence herbicidal activity, warm season
Assay type: in vivo, Cirsium arvense
Conditions: GR80 = lowest tested rate (300, 100, 30, 10 g/ha) with 80% or greater inhibition; approx. 14 days after treating; 30/21° C.
Procedure, shortened: as §2

Row | Compound | Pre-emergence activity (GR80) CIRAR [g/ha]
15 | CCSC(F)(F)S(=O)(=O)c1ncn(C(=O)N(CC)CC)n1 [Example 8, 1-(N,N-diethylcarbamoyl)-3-[difluoro(ethylthio)methylsulfonyl]-1,2,4-triazole] | 300
